Each compound was assayed against mTOR/GbL/Raptor (mTORC1) (Homo sapiens, UniProt P42345) (assay: mTOR/GbL/Raptor (mTORC1) ELISA assay). Conditions: phosphorylation of 4E-BP1; 0.2 nM mTORC1, 10 μM ATP; read-out: IC50 in this assay (mTORC1 ELISA).
Assay type: biochemical
In short: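 Human mTORC1 (0.2 nM) phosphorylated 50 nM His-tagged 4E-BP1 with 10 µM ATP in HEPES pH 7.2 containing 10 mM MnCl2, 120 min at ambient temperature. Substrate was captured on Ni-chelate plates; phospho-4E-BP1 was detected by primary antibody and HRP secondary with luminescence.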

IC50 | SMILES
50 to 250 nM | CCc1c(C)ncnc1N1CCOc2ccc(-c3cnc4nc(C)[nH]c4c3)cc2C1 [Example 470, 4-(5-ethyl-6-methylpyrimidin-4-yl)-7-(2-methyl-1H-imidazo[4,5-b]pyridin-6-yl)-2,3,4,5-tetrahydro-1,4-benzoxazepine]
50 to 250 nM | Cc1nc2ncc(-c3ccc4c(c3)CN(c3ncnc5c3CC(F)(F)CC5)CCO4)cc2[nH]1 [Example 471, 4-(6,6-difluoro-5,6,7,8-tetrahydcroquinazolin-4-yl)-7-(2-methyl-1H-imidazo[4,5-b]pyridin-6-yl)-2,3,4,5-tetrahydro-1,4-benzoxazepine]
50 to 250 nM | Cc1nc2ccc(-c3ccc4c(c3)CN(c3nc(-c5ccccn5)nc5c3CC(C)(C)CC5)CCO4)cc2[nH]1 [Example 472, 4-(6,6-dimethyl-2-pyridin-2-yl-5,6,7,8-tetrahydroquinazolin-4-yl)-7-(2-methyl-1H-benzimidazol-6-yl)-2,3,4,5-tetrahydro-1,4-benzoxazepine]
10 to 50 nM | Cc1nc2ncc(-c3ccc4c(c3)CN(c3nc(-c5ccccn5)nc5c3CC(C)(C)CC5)CCO4)cc2[nH]1 [Example 473, 4-(6,6-dimethyl-2-pyridin-2-yl-5,6,7,8-tetrahydroquinazolin-4-yl)-7-(2-methyl-1H-imidazo[4,5-b]pyridin-6-yl)-2,3,4,5-tetrahydro-1,4-benzoxazepine]
250 to 1000 nM | COc1cncc(-c2ccc3c(c2)CN(c2ncnc4c2CC(C)(C)CC4)CCO3)c1 [Example 476, 4-(6,6-dimethyl-5,6,7,8-tetrahydroquinazolin-4-yl)-7-[5-(methyloxy)pyridin-3-yl]-2,3,4,5-tetrahydro-1,4-benzoxazepine]
250 to 1000 nM | CC1(C)CCc2ncnc(N3CCOc4ccc(-c5cnc6nccnc6c5)cc4C3)c2C1 [Example 477, 4-(6,6-dimethyl-5,6,7,8-tetrahydroquinazolin-4-yl)-7-pyrido[2,3-b]pyrazin-7-yl-2,3,4,5-tetrahydro-1,4-benzoxazepine]
≤ 10 nM | Cc1nc2ncc(-c3ccc4c(c3)CN(c3ncnc5c3CC(C)(C)C=C5)CCO4)cc2[nH]1 [Example 478, 4-(6,6-dimethyl-5,6-dihydroquinazolin-4-yl)-7-(2-methyl-1H-imidazo[4,5-b]pyridin-6-yl)-2,3,4,5-tetrahydro-1,4-benzoxazepine]
≤ 10 nM | CC1(C)C=Cc2ncnc(N3CCOc4ccc(-c5ccc(-c6ncc[nH]6)cc5)cc4C3)c2C1 [Example 479, 4-(6,6-dimethyl-5,6-dihydroquinazolin-4-yl)-7-[4-(1H-imidazo-2-yl)phenyl]-2,3,4,5-tetrahydro-1,4-benzoxazepine]
250 to 1000 nM | Cc1nc2ncc(-c3ccc4c(c3)CN(c3ncnc(N5CCC5)c3C)CCO4)cc2[nH]1 [Example 480, 4-(6-azetidin-1-yl-5-methylpyrimidin-4-yl)-7-(2-methyl-1H-imidazo[4,5-b]pyridin-6-yl)-2,3,4,5-tetrahydro-1,4-benzoxazepine]
50 to 250 nM | Cc1nc2ncc(-c3ccc4c(c3)CN(c3ncnc(Cl)c3C)CCO4)cc2[nH]1 [Example 481, 4-(6-chloro-5-methylpyrimidin-4-yl)-7-(2-methyl-1H-imidazo[4,5-b]pyridin-6-yl)-2,3,4,5-tetrahydro-1,4-benzoxazepine]
10 to 50 nM | CCC1CCc2nc(C)nc(N3CCOc4ccc(-c5cnc6nc(C)[nH]c6c5)cc4C3)c2C1 (stereo not drawn) [Example 482, 4-(6-ethyl-2-methyl-5,6,7,8-tetrahydroquinazolin-4-yl)-7-(2-methyl-1H-imidazo[4,5-b]pyridin-6-yl)-2,3,4,5-tetrahydro-1,4-benzoxazepine]
≤ 10 nM | CCC1CCc2ncnc(N3CCOc4ccc(-c5cnc6nc(C)[nH]c6c5)cc4C3)c2C1 (stereo not drawn) [Example 483, 4-(6-ethyl-5,6,7,8-tetrahydroquinazolin-4-yl)-7-(2-methyl-1H-imidaz[4,5-b]pyridin-6-yl)-2,3,4,5-tetrahydro-1,4-benzoxazepine]

Reference: patent US8648066B2 (Exelixis, Inc., priority 2009, dated 2014)
